# What was measured:
# TGF-beta receptor type-1 [1] = molecular target: T1, TGF-beta receptor type-1 (Homo sapiens, UniProt P36897); assay type: cell-based, MDA-MB-468
# T1 sequence (P36897 whole entry): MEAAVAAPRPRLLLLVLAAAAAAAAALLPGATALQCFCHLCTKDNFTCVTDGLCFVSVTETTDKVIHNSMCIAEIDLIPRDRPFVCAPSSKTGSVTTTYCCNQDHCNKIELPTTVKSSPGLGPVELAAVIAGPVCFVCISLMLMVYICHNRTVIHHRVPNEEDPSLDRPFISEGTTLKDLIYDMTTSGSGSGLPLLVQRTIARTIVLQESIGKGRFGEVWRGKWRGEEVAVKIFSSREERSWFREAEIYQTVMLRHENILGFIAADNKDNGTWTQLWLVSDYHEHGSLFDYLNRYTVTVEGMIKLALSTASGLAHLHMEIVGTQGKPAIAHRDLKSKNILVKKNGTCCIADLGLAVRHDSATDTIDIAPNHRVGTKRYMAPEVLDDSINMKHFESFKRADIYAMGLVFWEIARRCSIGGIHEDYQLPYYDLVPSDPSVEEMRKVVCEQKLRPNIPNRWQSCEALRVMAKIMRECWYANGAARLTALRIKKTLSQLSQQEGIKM
# Description: Inhibition of ALK5 in human MDA-MB-468 cells assessed as inhibition of nuclear translocation of GFP-2/Smad2 fusion reporter gene after 90 mins by Hoechst 3342 staining-based cellomics arrayscan imaging analysis
# TGF-beta receptor type-1 [2] = molecular target: T1, TGF-beta receptor type-1; test: Inhibition of 6His-tagged human ALK5 expressed in baculovirus-infected SF21 cells after 30 mins by fluorescence polarization assay
# [3] = Octanol-phosphate buffered saline partition coefficient, log D at pH 7.4
# in vivo [4] = settings: Han Wistar, rat, po, 5 umol/kg
# Description: Oral bioavailability in Han Wistar rat at 5 umol/kg
# in vivo [5] = settings: Han Wistar, rat, plasma, po, 5 umol/kg
# Description: AUC in Han Wistar rat at 5 umol/kg, po
# [6] = Clearance in Han Wistar rat at 5 umol/kg, po; settings: in vivo, iv
# [7] = octanol/phosphate buffered saline
Compound,IC50 (TGF-beta receptor type-1 [1]) [nM],IC50 (TGF-beta receptor type-1 [2]) [nM],logD ([3]; octanol/water),"logD [3, 7]",bioavailability (in vivo [4]) [%],AUC (in vivo [5]) [µM·h],clearance [6] [mL/min/kg]
COc1cc(Nc2cc(Oc3cccnc3C)ccn2)cc(OC)c1OC,628,107,–,–,–,–,–
COc1cc(Nc2cc(Oc3ccc(C)nc3)ccn2)cc(OC)c1OC,282,108,3.2,–,–,–,–
Cc1cc(Oc2ccnc(Nc3ccc(F)cc3)c2)c(-c2ccccn2)nc1C,63,129,–,3.2,–,–,–
Cc1cc(Oc2ccnc(Nc3cccc(N4CCOCC4)c3)c2)c(-c2ccccn2)nc1C,–,–,–,3.3,–,–,–
COc1cc(Nc2cc(Oc3ccc(C)nc3C)ccn2)cc(OC)c1OC,21,–,–,3,21,0.34,–
COc1cc(Nc2cc(Oc3cccnc3)ccn2)cc(OC)c1OC,> 5800,227,–,2.7,–,–,–
COc1cc(Nc2cc(Oc3cc(C)c(C)nc3-c3ccccn3)ccn2)cc(OC)c1OC,–,–,–,–,4,–,–
Cc1cc(Oc2ccnc(Nc3ccc(N4CCOCC4)cc3)c2)c(-c2ccccn2)nc1C,–,–,–,2.6,–,–,–
COc1ccccc1Nc1cc(Oc2cc(C)c(C)nc2-c2ccccn2)ccn1,114,7,3.4,–,–,–,–
Cc1cc(Oc2ccnc(Nc3ccccc3N3CCOCC3)c2)c(-c2ccccn2)nc1C,–,–,–,3.1,–,–,–
Cc1cc(Oc2ccnc(Nc3ccc(C(=O)N(C)C)cc3)c2)c(-c2ccccn2)nc1C,31,12,–,3.4,–,–,–
Cc1cc(Oc2ccnc(Nc3ccc(S(N)(=O)=O)cc3)c2)c(-c2ccccn2)nc1C,27,21,–,2.3,20,0.47,–
COc1cc(Nc2cc(Oc3ccc(C)nc3-c3ccccn3)ccn2)cc(OC)c1OC,20,13,–,3.4,–,–,–
Cc1ccc(Oc2ccnc(Nc3ccc(S(N)(=O)=O)cc3)c2)c(C)n1,–,–,2.5,–,75,4.95,12
